Measured values as given in US9115092B2, “Substituted quinazoline and pyrido-pyrimidine derivatives” (Asana Biosciences, LLC, priority 2010, dated 2015).

Experiments:
[1] = target: T1, PI3Kα (wild-type), P110/P85α (Homo sapiens, UniProt P42336); assay: PI3 Kinase TR-FRET assay, PI3Kα (wild-type); format: biochemical
T1 construct: made in house; host or cells: SF9 insect cells
How it was run: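 Sf9-expressed His-purified P110/P85α (5 ng) preincubated 60 min RT with compound and PIP2 in buffer with 40 mM MgCl2, 5 mM DTT; reaction started with ATP (PIP2 and ATP both 10 μM), 30 min RT. PIP3 detected by TR-FRET displacement, 665/615 nm ratio; IC50 from dose-response curves.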

mTOR kinase = target: T2, mTOR kinase (Homo sapiens, UniProt P42345); assay: mTOR kinase TR-FRET assay; format: biochemical; conditions: read-out: mTO R
T2 construct: purchased Millipore, USA
How it was run: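 Compounds preincubated 60 min with mTOR (5 ng) in HEPES pH 7.5, EGTA, MnCl2; ULight-p70 S6K Thr389 peptide (50 nM) and ATP (20 μM) then added, 60 min at room temperature. EDTA-stopped, Eu-anti-phospho antibody detection by TR-FRET (665/615 nm); IC50 from variable-slope sigmoidal fit.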

[2] = tested on: pS6RP(S235/236), PC3 cells; assay: In-cell Western assay, pS6RP(S235/236) in PC3 cells; format: cell-based, human
Description: Cells from human prostate cancer cell line PC3 (American Type Culture Collection (ATCC), Manassas, Va. 20108 USA) were seeded at an optimal density of 22,000 cell/well in 96-well plates containing Ham's F12K medium (90 μL) and incubated overnight. The compound dilutions were carried out in 100% DMSO followed by a dilution in the medium. Test compounds were added in serial dilutions to the wells and incubated for 2 h. The cells were washed and fixed with 4% paraformaldehyde. After incubation at room temperature for 1 h in the dark, blocking was done for 2 h at room temperature. Primary antibodies for phosphorylated (p) AKT(5473) (phosphorylated at serine 473), pAKT(T308) (phosphorylated at threonine 308) and for pS6RP(S235/236) (phosphorylated at serine 235/236) (commercially available from Cell Signaling Technology®, whose protocol was followed for the in-cell western assay, were diluted to the required concentration and added to the corresponding wells followed by overnight incubation at 4° C. Eu-labeled rabbit (PE) (Perkin-Elmer USA catalog #AD0106) secondary antibody was added and incubated for 2 h at room temperature. Delfia® enhancement solution (cat #1244-105, Perkin Elmer USA) was subsequently added to the plate before taking the reading at 615 nm with excitation wavelength of 340 nm, after which 0.5 μg/mL of Hoechst® 33258 dye (Catalog #86140-5, Sigma) was added to the plate and fluorescence emission was read at 460 nm with 355 nm excitation, to evaluate the correction factor. IC50 values were calculated using a sigmoidal dose-response curve fit in GraphPad Prism® v5 software.

PC3 cells = assay: XTT assay for cell viability, PC3 cells; format: cell-based, human; conditions: Homo sapiens, PC-3, cell viability
How it was run: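 PC3 cells seeded at 1000 cells/well, grown 24 h, then exposed to serial dilutions of compound for 96 h. Viability read by XTT dye at 37° C, absorbance 465 nm. EC50 from sigmoidal dose-response fit.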

[3] = Homo sapiens, PC-3, In-cell Western

T1 sequence (P42336 whole entry): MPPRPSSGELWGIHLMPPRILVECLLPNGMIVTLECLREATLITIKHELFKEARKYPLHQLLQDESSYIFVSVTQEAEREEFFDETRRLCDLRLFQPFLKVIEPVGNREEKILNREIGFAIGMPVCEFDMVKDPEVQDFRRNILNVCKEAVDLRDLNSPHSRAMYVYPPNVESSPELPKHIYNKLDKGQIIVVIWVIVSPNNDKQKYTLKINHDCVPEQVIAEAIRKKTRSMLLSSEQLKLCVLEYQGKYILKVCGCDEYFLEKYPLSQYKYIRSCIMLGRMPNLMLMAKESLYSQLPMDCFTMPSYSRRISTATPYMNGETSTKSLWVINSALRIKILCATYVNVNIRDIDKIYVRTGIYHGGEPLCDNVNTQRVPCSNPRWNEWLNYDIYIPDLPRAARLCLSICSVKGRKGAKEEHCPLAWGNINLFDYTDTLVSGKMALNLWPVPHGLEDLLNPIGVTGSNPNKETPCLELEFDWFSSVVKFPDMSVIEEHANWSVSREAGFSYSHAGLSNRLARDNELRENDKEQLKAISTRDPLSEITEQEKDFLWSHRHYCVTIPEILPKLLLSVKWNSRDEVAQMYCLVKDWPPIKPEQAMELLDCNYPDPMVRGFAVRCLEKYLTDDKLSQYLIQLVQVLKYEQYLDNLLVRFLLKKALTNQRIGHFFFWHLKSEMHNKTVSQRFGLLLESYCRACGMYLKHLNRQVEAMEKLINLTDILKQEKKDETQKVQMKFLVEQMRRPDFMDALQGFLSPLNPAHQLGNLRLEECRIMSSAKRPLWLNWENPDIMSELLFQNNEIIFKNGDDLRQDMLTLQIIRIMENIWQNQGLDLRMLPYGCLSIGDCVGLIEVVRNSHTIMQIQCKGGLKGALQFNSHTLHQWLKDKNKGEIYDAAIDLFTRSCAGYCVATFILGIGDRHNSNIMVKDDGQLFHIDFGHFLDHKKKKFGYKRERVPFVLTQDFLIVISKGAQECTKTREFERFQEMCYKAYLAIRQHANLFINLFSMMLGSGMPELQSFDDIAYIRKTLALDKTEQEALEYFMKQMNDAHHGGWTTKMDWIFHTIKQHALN
T1 sequence (P27986 whole entry partner): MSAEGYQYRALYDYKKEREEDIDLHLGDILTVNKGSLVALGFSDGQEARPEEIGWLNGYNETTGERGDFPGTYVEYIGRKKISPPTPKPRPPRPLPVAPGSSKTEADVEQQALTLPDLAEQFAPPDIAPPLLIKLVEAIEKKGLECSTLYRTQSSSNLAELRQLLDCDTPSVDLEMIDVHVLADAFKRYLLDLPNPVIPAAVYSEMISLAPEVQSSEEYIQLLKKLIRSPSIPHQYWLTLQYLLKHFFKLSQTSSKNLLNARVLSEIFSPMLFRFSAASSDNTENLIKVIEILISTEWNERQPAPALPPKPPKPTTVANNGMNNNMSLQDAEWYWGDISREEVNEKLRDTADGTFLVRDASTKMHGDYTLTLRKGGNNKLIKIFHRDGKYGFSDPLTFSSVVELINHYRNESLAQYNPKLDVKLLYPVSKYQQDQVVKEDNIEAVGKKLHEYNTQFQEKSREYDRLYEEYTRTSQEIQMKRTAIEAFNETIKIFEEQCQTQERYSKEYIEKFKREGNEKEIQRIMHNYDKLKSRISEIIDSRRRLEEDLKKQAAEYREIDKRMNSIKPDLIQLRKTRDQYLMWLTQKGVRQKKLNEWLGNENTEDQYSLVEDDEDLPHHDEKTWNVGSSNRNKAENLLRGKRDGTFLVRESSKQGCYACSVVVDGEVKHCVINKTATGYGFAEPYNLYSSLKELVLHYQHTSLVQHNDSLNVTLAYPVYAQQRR

Row | SMILES | IC50 [1] [nM] | IC50 (mTOR kinase) [nM] | IC50 [2, 3] [nM] | IC50 (PC3 cells) [nM] | IC50 ([2]; In-cell Western) [nM]
1 | COc1cc2nc(-c3ccc(NC(=O)Nc4ccc(C(=O)N(C)C)cc4)cc3)nc(N3CCOCC3)c2cc1OC [Example 181, 4-(3-(4-(6,7-dimethoxy-4-morpholino-quinazolin-2-yl)phenyl)ureido)-N,N-dimethyl-benzamide] | 50 to 200 | < 50 | 201 to 10000 | 201 to 10000 | 
2 | CN(C)C(=O)c1ccc(NC(=O)Nc2ccc(-c3nc(N4CCOCC4)c4cccc(-c5cccnc5F)c4n3)cc2)cc1 [Example 40, 4-(3-{4-[8-(2-fluoro-pyridin-3-yl)-4-morpholin-4-yl-quinazolin-2-yl]-phenyl}-ureido)-N,N-dimethyl-benzamide] | 50 to 200 | < 50 | < 100 | 100 to 500 | 
3 | O=C(Nc1ccc(C(=O)N2CCC(O)C2)cc1)Nc1ccc(-c2nc(N3CCOCC3)c3ccc(-c4cncnc4)cc3n2)cc1 (stereo not shown) [Example 189, 1-(4-(3-hydroxypyrrolidine-1-carbonyl)phenyl)-3-(4-(4-morpholino-7-(pyrimidin-5-yl)quinazolin-2-yl)phenyl)urea] | 201 to 10000 | < 50 | 201 to 10000 | 201 to 10000 | 
4 | CN(C)C(=O)c1ccc(NC(=O)Nc2ccc(-c3nc(N4CCOCC4)c4ccc(-c5ccnnc5)cc4n3)cc2F)cc1 [Example 98, 4-(3-(2-fluoro-4-(4-morpholino-7-(pyridazin-4-yl)quinazolin-2-yl)phenyl)ureido)-N,N-dimethyl-benzamide] | 50 to 200 | < 50 | 201 to 10000 | 201 to 10000 | 
5 | CN(C)C1CCN(C(=O)c2ccc(NC(=O)Nc3ccc(-c4nc(N5CCOCC5)c5ncc(-c6cnn(C)c6)cc5n4)cc3)cc2)C1 (stereo in doubt) [Example 185, (S)-1-(4-(3-(dimethylamino)pyrrolidine-1-carbonyl)phenyl)-3-(4-(7-(1-methyl-1H-pyrazol-4-yl)-4-morpholino-pyrido[3,2-d]pyrimidin-2-yl)phenyl)urea] | < 50 | < 50 |  |  | 201 to 10000
6 | CN(C)C1CCN(C(=O)c2ccc(NC(=O)Nc3ccc(-c4nc(N5CCOCC5)c5ncc(-c6cnn(C)c6)cc5n4)cc3F)cc2)C1 (stereo in doubt) [Example 210, (S)-1-(4-(3-(dimethylamino)pyrrolidine-1-carbonyl)phenyl)-3-(2-fluoro-4-(7-(1-methyl-1H-pyrazol-4-yl)-4-morpholino-pyrido[3,2-d]pyrimidin-2-yl)phenyl)urea] | < 50 | < 50 |  |  | 201 to 10000
7 | N[C@@H]1CCN(C(=O)c2ccc(NC(=O)Nc3ccc(-c4nc(N5CCOCC5)c5ccc(-c6cncnc6)cc5n4)cc3F)cc2)C1 [Example 209, (R)-1-(4-(3-aminopyrrolidine-1-carbonyl)phenyl)-3-(2-fluoro-4-(4-morpholino-7-(pyrimidin-5-yl)quinazolin-2-yl)phenyl)urea] | < 50 | < 50 |  |  | 201 to 10000
8 | Cc1ccc(-c2ccc3c(N4CCOCC4)nc(-c4ccc(NC(=O)Nc5ccc(C(=O)N6CC[C@@H](N(C)C)C6)cc5)cc4)nc3c2)o1 [Example 196, (R)-1-(4-(3-(dimethylamino)pyrrolidine-1-carbonyl)phenyl)-3-(4-(7-(5-methylfuran-2-yl)-4-morpholino-quinazolin-2-yl)phenyl)urea] | 50 to 200 | < 50 | < 100 |  | 

Further lines, results first:

Row | IC50 [1] [nM] | IC50 (mTOR kinase) [nM] | IC50 [2, 3] [nM] | IC50 (PC3 cells) [nM] | IC50 ([2]; In-cell Western) [nM] | SMILES
9 | < 50 | 50 to 200 | < 100 | 501 to 5000 |  | Cc1ccc(-c2ccc3c(N4CCOCC4)nc(-c4ccc(NC(=O)Nc5ccc(C(=O)N(C)C)nc5)nc4)nc3c2)o1 [Example 129, N,N-dimethyl-5-(3-(5-(7-(5-methylfuran-2-yl)-4-morpholino-quinazolin-2-yl)pyridin-2-yl)ureido)picolinamide]
10 | < 50 | < 50 | < 100 | 100 to 500 |  | CN(C)C(=O)c1ccc(NC(=O)Nc2ccc(-c3nc(N4CCOCC4)c4ccc(-c5ccncc5F)cc4n3)cc2)cc1 [Example 65, 4-(3-{4-[7-(3-fluoro-pyridin-4-yl)-4-morpholin-4-yl-quinazolin-2-yl]-phenyl}-ureido)-N,N-dimethyl-benzamide]
11 | < 50 | < 50 | 201 to 10000 | 201 to 10000 |  | NC1CCN(C(=O)c2ccc(NC(=O)Nc3ccc(-c4nc(N5CCOCC5)c5ccc(-c6cncnc6)cc5n4)cc3F)cc2)C1 (stereo in doubt) [Example 208, (S)-1-(4-(3-aminopyrrolidine-1-carbonyl)phenyl)-3-(2-fluoro-4-(4-morpholino-7-(pyrimidin-5-yl)quinazolin-2-yl)phenyl)urea]
12 | < 50 | < 50 | 201 to 10000 | 201 to 10000 |  | CN(C)[C@@H]1CCN(C(=O)c2ccc(NC(=O)Nc3ccc(-c4nc(N5CCOCC5)c5ncc(-c6cnn(C)c6)cc5n4)cc3)cc2)C1 [Example 184, (R)-1-(4-(3-(dimethylamino)pyrrolidine-1-carbonyl)phenyl)-3-(4-(7-(1-methyl-1H-pyrazol-4-yl)-4-morpholino-pyrido[3,2-d]pyrimidin-2-yl)phenyl)urea]
13 | < 50 | < 50 | 201 to 10000 | 201 to 10000 |  | CN(C)C(=O)c1ccc(NC(=O)Nc2ccc(-c3nc(N4CCOCC4)c4ncc(-c5cncnc5)cc4n3)cc2F)cc1 [Example 101, 4-(3-(2-fluoro-4-(4-morpholino-7-(pyrimidin-5-yl)pyrido[3,2-d]pyrimidin-2-yl)phenyl)ureido)-N,N-dimethyl-benzamide]
14 | < 50 | < 50 | 201 to 10000 | 201 to 10000 |  | CN(C)[C@@H]1CCN(C(=O)c2ccc(NC(=O)Nc3ccc(-c4nc(N5CCOCC5)c5ccc(-c6cncnc6)cc5n4)cc3)cc2)C1 [Example 187, (R)-1-(4-(3-(dimethylamino)pyrrolidine-1-carbonyl)phenyl)-3-(4-(4-morpholino-7-(pyrimidin-5-yl)quinazolin-2-yl)phenyl)urea]
15 | < 50 | 50 to 200 | 201 to 10000 | 201 to 10000 |  | Cc1noc(C)c1-c1ccc2c(N3CCOCC3)nc(-c3ccc(NC(=O)Nc4ccc(C(=O)N(C)C)cc4)c(F)c3)nc2c1 [Example 131, 4-(3-(4-(7-(3,5-dimethylisoxazol-4-yl)-4-morpholino-quinazolin-2-yl)-2-fluorophenyl)ureido)-N,N-dimethyl-benzamide]
16 | < 50 | < 50 | 201 to 10000 | 201 to 10000 |  | CN(C)C(=O)c1ccc(NC(=O)Nc2ccc(-c3nc(N4CCOCC4)c4ccc(-c5ccc(C(C)(C)O)o5)cc4n3)cc2)cc1 [Example 222, 4-(3-(4-(7-(5-(2-hydroxypropan-2-yl)furan-2-yl)-4-morpholino-quinazolin-2-yl)phenyl)ureido)-N,N-dimethyl-benzamide]
17 | < 50 | < 50 | 201 to 10000 | 201 to 10000 |  | Cc1noc(C)c1-c1cnc2c(N3CCOCC3)nc(-c3ccc(NC(=O)Nc4ccc(C(=O)N(C)C)cc4)cc3)nc2c1 [Example 120, 4-(3-(4-(7-(3,5-dimethylisoxazol-4-yl)-4-morpholino-pyrido[3,2-d]pyrimidin-2-yl)phenyl)ureido)-N,N-dimethyl-benzamide]
18 | < 50 | < 50 |  |  | 201 to 10000 | CN(C)C1CCN(C(=O)c2ccc(NC(=O)Nc3ccc(-c4nc(N5CCOCC5)c5ccc(-c6cncnc6)cc5n4)cc3)cc2)C1 (stereo in doubt) [Example 188, (S)-1-(4-(3-(dimethylamino)pyrrolidine-1-carbonyl)phenyl)-3-(4-(4-morpholino-7-(pyrimidin-5-yl)quinazolin-2-yl)phenyl)urea]
19 | < 50 | < 50 |  |  | 201 to 10000 | CN(C)[C@@H]1CCN(C(=O)c2ccc(NC(=O)Nc3ccc(-c4nc(N5CCOCC5)c5cc(F)c(-c6cccnc6)cc5n4)cc3)cc2)C1 [Example 200, (R)-1-(4-(3-(dimethylamino)pyrrolidine-1-carbonyl)phenyl)-3-(4-(6-fluoro-4-morpholino-7-(pyridin-3-yl)quinazolin-2-yl)phenyl)urea]
